Each block holds one compound with its values, some of them ahead of it.
Key:
[1] = system: human or mouse tumor cells; conditions: Patent Document 1, Non-Patent Documents 1 and 2; cited from earlier work
[2] = Patent Document 1, Non-Patent Documents 1 and 2; cited from earlier work
[3] = Stability test: content of total analogues by HPLC after storage; assay type: physicochemical; conditions: for Total analogues (%), amount of increase from the initial value: 30 days vs initial; for Total analogues (%), 10 days: storage 10 days; for Total analogues (%), 18 days: storage 18 days; for Total analogues (%), 30 days: storage 30 days; for Increase in the total analogues: stability test under various conditions (humidification and exposure), 30 days
Protocol: (§1) The type I and type II crystal powders were respectively spread uniformly on a glass petri dish, and an aluminum foil (or a transparent resin film, for the purpose of storage under light exposure conditions) which was appropriately perforated as vent holes therein was used as a lid, to prepare test samples. These samples were respectively stored for 30 days under four kinds of conditions such as [60° C.], [40° C./relative humidity (RH) 75%], [25° C./relative humidity (RH) 60%, light exposure 2000 lx·hr], and [25° C./relative humidity (RH) 60%, light shading], and then the samples were tested using high performance liquid chromatography (HPLC) and powder X-ray diffraction (XRD).
For the HPLC analysis, 22.9 mg of the sample was dissolved in 10 mL of 0.01 mol/L hydrochloric acid, and then the content of analogues in the crystal was measured under the following conditions.
Column: Synergi Hydro-RP 80A Phenomenex (φ4.6 mm×25 cm, 4 μm); temperature 25° C.
Mobile phase: 2.05 g of potassium dihydrogen phosphate is dissolved in 3000 mL of water, and phosphoric acid is added to the solution to adjust the pH to 3.0. The mobile phase is prepared by adding 60 mL of methanol to 2940 mL of the solution liquid.
Flow rate: Approximately 1.0 mL/min
Detector: Ultraviolet absorptiometer (measurement wavelength 254 nm)
Standard Sample: • 1-(2′-cyano-2′-deoxy-β-D-arabinofuranosyl)cytosine monohydrochloride
The term “total analogues” refers to the substances detected other than 1-(2′-cyano-2′-deoxy-β-D-arabinofuranosyl)cytosine monohydrochloride), and the term “total analogues (%)” refers to the content ratio of total analogues with respect to the standard sample.

[4] = Stability test: change of crystal form by powder X-ray diffraction after storage; assay type: physicochemical; conditions: 30 days
Source text: as §1, with “The powder X-ray diffraction data were obtained by irradiating the crystal with CuKα ray (1.541 Å) using an X-ray diffraction apparatus (trade name: PW3050, manufactured by Koninklijke Philips Electronics N.V.), and detecting the angles using a vertical goniometer. The type” for “The type”, “diffraction (XRD). For powder X-ray diffraction (XRD), the analysis was carried out as described above.” for “diffraction (XRD).”

[5] = Heating of the crystal at 80° C. for 2 hours, crystal form by melting point and powder X-ray diffraction; assay type: physicochemical; conditions: heated at 80° C. for 2 hours
[6] = 25° C./60% RH/2000 lx, listed as I, monohydrochloride
[7] = 25° C./60% RH/Light shading, listed as I, monohydrochloride
[8] = 40° C./75% RH, listed as I, monohydrochloride
[9] = 60° C., listed as I, monohydrochloride
[10] = 25° C./60% RH/2000 lx, listed as II, monohydrochloride
[11] = 25° C./60% RH/Light shading, listed as II, monohydrochloride
[12] = 40° C./75% RH, listed as II, monohydrochloride
[13] = 60° C., listed as II, monohydrochloride

Compound: Cl.N#CC1C(O)[C@@H](CO)O[C@H]1n1ccc(N)nc1=O (stereo partly drawn) [compound (1), 1-(2′-cyano-2′-deoxy-β-D-arabinofuranosyl)cytosine monohydrochloride]
In vitro suppressive effect for proliferation of tumor cells [1]: suppressive effect for proliferation | Anti-tumor activity in vivo [2]: excellent anti-tumor activity

Total analogues (%), amount of increase from the initial value [3, 6]: 0.06% | Total analogues (%), initial [3, 6]: 0.07% | Total analogues (%), 10 days [3, 6]: 0.09% | Total analogues (%), 18 days [3, 6]: 0.09% | Total analogues (%), 30 days [3, 6]: 0.13% | Total analogues (%), amount of increase from the initial value [3, 7]: 0.00% | Total analogues (%), initial [3, 7]: 0.07% | Total analogues (%), 10 days [3, 7]: 0.07% | Total analogues (%), 18 days [3, 7]: 0.06% | Total analogues (%), 30 days [3, 7]: 0.07% | Total analogues (%), amount of increase from the initial value [3, 8]: −0.02% | Total analogues (%), initial [3, 8]: 0.07% | Total analogues (%), 10 days [3, 8]: 0.07% | Total analogues (%), 18 days [3, 8]: 0.06% | Total analogues (%), 30 days [3, 8]: 0.05% | Total analogues (%), amount of increase from the initial value [3, 9]: 0.00% | Total analogues (%), initial [3, 9]: 0.07% | Total analogues (%), 10 days ([3]; 60° C.): 0.06% | Total analogues (%), 18 days ([3]; 60° C.): 0.07% | Total analogues (%), 30 days ([3]; 60° C.): 0.07% | Increase in the total analogues [3]: not recognized | Change of crystal form from the initial value ([4]; 25° C./60% RH/2000 lx): No change | Change of crystal form from the initial value ([4]; 25° C./60% RH/Light shading): No change | Change of crystal form from the initial value [4, 8]: No change | Change of crystal form from the initial value ([4]; 60° C.): No change
Compound: Cl.N#C[C@H]1[C@H](O)[C@@H](CO)O[C@H]1n1ccc(N)nc1=O [type I crystal, 1-(2′-cyano-2′-deoxy-β-D-arabinofuranosyl)cytosine monohydrochloride]
Stability of the crystal form (overall conclusion) ([3]; conclusion from the stability test and crystal form conversions): superior stability as compared with the type II crystal or the type III crystal

Total analogues (%), amount of increase from the initial value [3, 10]: 0.32% | Total analogues (%), initial [3, 10]: 0.06% | Total analogues (%), 10 days [3, 10]: 0.15% | Total analogues (%), 18 days [3, 10]: 0.23% | Total analogues (%), 30 days [3, 10]: 0.38% | Total analogues (%), amount of increase from the initial value [3, 11]: 0.03% | Total analogues (%), initial [3, 11]: 0.06% | Total analogues (%), 10 days [3, 11]: 0.06% | Total analogues (%), 18 days [3, 11]: 0.07% | Total analogues (%), 30 days [3, 11]: 0.09% | Total analogues (%), amount of increase from the initial value [3, 12]: 0.10% | Total analogues (%), initial [3, 12]: 0.06% | Total analogues (%), 10 days [3, 12]: 0.06% | Total analogues (%), 18 days [3, 12]: 0.08% | Total analogues (%), 30 days [3, 12]: 0.16% | Total analogues (%), amount of increase from the initial value [3, 13]: 0.01% | Total analogues (%), initial [3, 13]: 0.06% | Total analogues (%), 30 days ([3]; 60° C.): 0.07% | Increase in the total analogues [3]: not recognized | Change of crystal form from the initial value ([4]; 25° C./60% RH/2000 lx): No change | Change of crystal form from the initial value [4, 12]: Changed (II → I) | Change of crystal form from the initial value ([4]; 40° C./75% RH, monohydrochloride): converted to the type I crystal
Compound: Cl.N#CC1C(O)[C@@H](CO)O[C@H]1n1ccc(N)nc1=O (stereo partly drawn) [type II crystal, 1-(2′-cyano-2′-deoxy-β-D-arabinofuranosyl)cytosine monohydrochloride]

Change of crystal form on heating [5]: converted to the type I crystal
Compound: Cl.N#CC1C(O)[C@@H](CO)O[C@H]1n1ccc(N)nc1=O (stereo partly drawn) [type III crystal, 1-(2′-cyano-2′-deoxy-β-D-arabinofuranosyl)cytosine monohydrochloride]
